Data published in patent US11059823B2, “Small molecule inhibitors of the JAK family of kinases” (Janssen Pharmaceutica NV, priority 2016, dated 2021).

Columns and labels:
[1] = Physical stability of crystalline embodiments of compound Ex. 1 (polymorph screening, HT-XRPD); assay type: physicochemical; settings: for physical stability after exposure to AAC: accelerated aging conditions, 40° C./70% RH, two days
Procedure: Long term slurry experiments were performed by suspending compound embodiment 1s in twenty neat solvents and stirred at room temperature for two weeks and at 50° C. for one week. Upon completion of the equilibration time, the residual solids were separated from the mother liquors. The solids were dried under ambient conditions and dried under vacuum (5 mBar) before being analyzed by HT-XRPD. Subsequently, the solids were exposed to accelerated aging conditions (40° C./70% relative humidity) for two days and again analyzed by HT-XRPD.
Embodiment is converted to hydrated embodiment 10 when it was exposed to 100% RH at 25° C. […] This behavior is attributable to an unequally strong binding of all the hydration/solvation molecules. In this case, embodiment 10 would have a less strongly bound second water molecule that would be lost under ambient conditions. More precisely, the physical stability of embodiment is was investigated in climate chambers by exposing a 20 mg sample of such embodiment to 40° C. and 70% relative humidity for four days, and another 20 mg sample of the same embodiment was exposed also for four days to 25° C. and 100% relative humidity. After four days, the various solid samples were analyzed by HR-XRPD, the crystal cell parameters were determined and the diffractograms were indexed. From bottom to top, the first diffractogram in FIG. 6 corresponds to embodiment is as starting material, and the second corresponds to the same form after a 4-day exposure to 40° C. and 70% relative humidity, noted as “1s 70 RH” in the same figure. […] Indexing for such form was not possible due to the small amount in which it was present. The third diffractogram corresponds to embodiment is after a 4-day exposure to 25° C. and 100% relative humidity, noted as “10” in the same figure. […] Upon dehydration, both embodiments 1s and 10 re-crystallized to the anhydrous form with a melting point of 148° C.
The mother liquors of the solvent equilibration experiments performed at 50° C. were filtered at 50° C. to remove any particulate matter. […] When solids had precipitated during aging these solids were separated from the liquid, dried under ambient conditions and under vacuum, and analyzed by HT-XRPD. The remaining mother liquors were allowed to slowly evaporate and the remaining solids were analyzed by HT-XRPD. The samples in which no precipitation occurred were placed under vacuum and the dried solids were analyzed by HT-XRPD. All the solids were then exposed to AAC (2 days at 40° C./70% RH) and re-analyzed by HT-XRPD.
The cooling/evaporative crystallization experiments at L scale were performed in a 96-well plate, using 12 neat solvents and 12 solvent mixtures and applying four temperature profiles. […] Upon completion of the temperature profile the solvents were allowed to evaporate at low ambient pressure (24 hours) and the remaining solids were analyzed by HT-XRPD before and after exposure to AAC for 2 days (40° C./70% RH).
The cooling crystallization experiments with hot filtration were performed from supersaturated solutions of compound Ex. 1 prepared at 50° C. in different solvent mixtures. […] The vials in which solids had precipitated after the temperature profile were centrifuged and the solids were separated from the liquid and analyzed by HT-XRPD (after drying under vacuum). If no solids had precipitated the solutions were evaporated under vacuum and the solids analyzed by HT-XRPD. […]

MDCK-MDR1 cell line = assay: MDCK-MDR1 permeability assay; assay type: in vitro ADME; settings: apical-to-basolateral, with P-gp inhibitor elacridar (2 μM), 5 μM, 60 min
Procedure: Permeability measurements were conducted according to the Cyprotex protocol using the MDCK-MDR1 cell line obtained from the NIH (Rockville, Md., USA). […] The cells in this assay form a cohesive sheet of a single cell layer filing the surface area of the culture dish, also known as a confluent monolayer, and on day four the test compound was added to the apical side of the membrane and the transport of the compound across the monolayer was monitored over a time period of 60 min.
Test compounds were dissolved in DMSO at a concentration of 10 mM. The dosing solutions were prepared by diluting test compound with assay buffer (Hanks Balanced Salt Solution), pH 7.4, at a final concentration of 5 μM. For assessment of apical to basolateral (“A-B”) permeability, buffer was removed from the apical compartment and replaced with test compound dosing solution with or without the permeability glycoprotein (“PgP”, “P-gP”, “Pgp” or “P-gp”) inhibitor elacridar (2 μM). For assessment of basolateral to apical (“B-A”) permeability, buffer was removed from the companion plate and replaced with test compound dosing solution. Incubations were carried out in duplicate at 37° C. in an atmosphere of 5% CO2 with a relative humidity of 95%. Each assay included the reference markers propranolol (high permeability) and prazosin (PgP substrate). After incubation for 60 minutes, apical and basolateral samples were diluted and test compounds quantified by LC/MS/MS using an 8-point calibration in the range 0.0039 to 3 μM with appropriate dilution of the samples (receiver dilution factor=1; donor and Co dilution factor=10). The permeability coefficient (Papp) for each compound was calculated from the following equation: Papp=(dQ/dt)/(C0×S), where dQ/dt is the rate of permeation of the drug across the cells, C0 is the donor compartment concentration at time zero, and S is the area of the cell monolayer.
Papp(A-B) gives an indication of permeation extent across the cells in this assay, which is envisaged to model the transcellular transport across Pgp-expressing cells, such as Pgp-expressing gastrointestinal tract cells.

moderate to severe CD = settings: 4 week/Phase 2 clinical trial; cited from earlier work

SMILES | physical stability after exposure to AAC [1] | other results
CC(C)(O)CNC(=O)Cc1nc2cnc3[nH]ccc3c2n1[C@H]1CC[C@H](CC#N)CC1 [Embodiment 10] | – | physical stability under ambient conditions ([1]; ambient conditions): limited physical stability
CC(C)(O)CNC(=O)Cc1nc2cnc3[nH]ccc3c2n1[C@H]1CC[C@H](CC#N)CC1 [Embodiment 2] | converted to embodiment 3e | –
N#CC[C@H]1CC[C@H](n2c(CC(=O)NC3CCOCC3)nc3cnc4[nH]ccc4c32)CC1 [Ex. 5, 2-(1-((1r,4r)-4-(Cyanomethyl)cyclohexyl)-1,6-dihydroimidazo[4,5-d]pyrrolo[2,3-b]pyridin-2-yl)-N-(tetrahydro-2H-pyran-4-yl)acetamide] | – | MDCK-MDR1 P^eapp(A-B) @ 5 (μM) (MDCK-MDR1 cell line): 0.5 10^−6 cm/sec
CC(C)(O)CNC(=O)Cc1nc2cnc3[nH]ccc3c2n1[C@H]1CC[C@H](CC#N)CC1 [Embodiment 5] | physically unstable | –
CC(C)(O)CNC(=O)Cc1nc2cnc3[nH]ccc3c2n1[C@H]1CC[C@H](CC#N)CC1 [Embodiment 7] | physically stable | –
CC(C)(O)CNC(=O)Cc1nc2cnc3[nH]ccc3c2n1[C@H]1CC[C@H](CC#N)CC1 [Embodiment 6] | stable solid form | –
C[C@@H]1CCN(C(=O)CC#N)C[C@@H]1N(C)c1ncnc2[nH]ccc12 [tofacitinib] | – | clinical efficacy in Crohn's disease (moderate to severe CD): failure to achieve clinical efficacy
